Article PMC5381205, “A Clinically Relevant Variant of the Human Hydrogen Sulfide-Synthesizing Enzyme Cystathionine β-Synthase: Increased CO Reactivity as a Novel Molecular Mechanism of Pathogenicity?” (Oxidative Medicine and Cellular Longevity, 2017)
Residue numbers refer to the chain shown, from its start. Where “and” joins values, the source holds several entries; their conditions need not be identical. Equal entries are not always repeated. Where two headings read alike, the source gives them in different places.

Tests used:
[1] = target: T1, recombinant human WT CBS (Homo sapiens, UniProt P35520); experiment: H2S synthesis assay (amperometric and lead acetate methods), WT CBS; type: biochemical; settings: for H2S-synthesizing activity stimulation by AdoMet: 500 μM AdoMet, 37°C
T1 construct: employed in this study, corresponding to full-length CBS WT and p.P49L purified in the absence; made in house
T1 sequence (P35520 1-551): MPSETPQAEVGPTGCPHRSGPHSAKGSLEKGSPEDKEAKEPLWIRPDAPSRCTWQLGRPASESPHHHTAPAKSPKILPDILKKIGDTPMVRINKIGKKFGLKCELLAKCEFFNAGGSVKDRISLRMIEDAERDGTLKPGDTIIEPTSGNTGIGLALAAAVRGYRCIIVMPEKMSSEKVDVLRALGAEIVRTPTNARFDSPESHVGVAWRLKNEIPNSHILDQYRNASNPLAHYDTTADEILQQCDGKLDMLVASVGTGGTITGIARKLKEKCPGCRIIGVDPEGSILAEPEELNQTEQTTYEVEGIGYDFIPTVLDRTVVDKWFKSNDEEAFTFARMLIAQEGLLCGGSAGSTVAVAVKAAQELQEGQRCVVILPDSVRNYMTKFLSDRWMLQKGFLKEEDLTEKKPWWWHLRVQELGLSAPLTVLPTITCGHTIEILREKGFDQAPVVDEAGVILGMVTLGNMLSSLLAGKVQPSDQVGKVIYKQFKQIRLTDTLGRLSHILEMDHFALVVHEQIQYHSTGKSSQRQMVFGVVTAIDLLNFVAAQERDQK
Experimental: (§1) H2S production by recombinant human CBS variants was measured at 37°C, either by amperometry using a H2S-selective electrode (World Precision Instruments) or by the lead acetate method. Purified CBS (0.5–1 μM) was incubated for 10 minutes with 50 μM PLP, 260 U/ml catalase, and 0.4–2.0 mM homocysteine in the absence or presence of 0.5 mM AdoMet, after which 10 mM cysteine was added to trigger the reaction. Amperometric assays were performed using an ISO-H2S-2 hydrogen sulfide sensor coupled to an Apollo 4000 Free Radical Analyzer (World Precision Instruments). After recording H2S production for 3 minutes, the electrode was internally calibrated by adding 4 μM NaHS (corresponding to 2 μM H2S at pH 7.0). Finally, 50 μM o-acetylserine and 200 nM Entamoeba histolytica o-acetylserine sulfhydrylase were added to the reaction mixture to remove H2S from solution and bring the signal back to baseline. Activity assays by the lead acetate method were carried out in a thermostated cuvette under stirring, according to [5]. Lead acetate (400 μM) was added to the reaction mix prior to cysteine addition and H2S production monitored at 390 nm in an Agilent Cary-60 spectrophotometer.

[2] = target: T2, human CBS p.P49L (ferrous heme) (Homo sapiens, UniProt P35520, P49L); experiment: Stopped-flow kinetics of CO binding to ferrous CBS p.P49L; settings: for CO binding fitted rate constant k2 / CO binding fitted rate constant k1 / CO binding fitted rate constant k3: 1 mM CO, 25°C; for CO binding fitted rate constant k2: 30% reaction amplitude
T2 construct: Recombinant full-length human CBS p.P49L was expressed and purified; made in house; host or cells: E. coli
T2 sequence (P35520 1-551 P49L): T1 sequence (P35520 1-551) with P49L
Experimental: (§2) Time-resolved absorption spectroscopy experiments were carried out in a thermostated stopped-flow instrument (DX.17MV, Applied Photophysics), equipped with a photodiode-array (light path, 1 cm). To avoid light-induced artifacts, the intensity of the white-light incident beam was decreased and a filter cutting UV light at λ < 360 nm was employed. Absorption spectra were recorded with an acquisition time of 10 ms per spectrum according to a logarithmic time scale. All reactions were carried out at 25°C in buffer A. CBS p.P49L was thoroughly flushed with nitrogen, after which glucose oxidase (4 units·ml^−1), catalase (13 μg·ml^−1), superoxide dismutase (12 units·ml^−1), and glucose (3 mM) were added to scavenge oxygen, hydrogen peroxide, and superoxide anion. The protein was then placed on ice, protected from light to prevent possible damaging photoreactions. When indicated, CBS p.P49L was incubated with AdoMet for ≥10 minutes, prior to reduction with 90 µM sodium dithionite. CO association kinetics were studied by mixing in the stopped-flow apparatus reduced CBS p.P49L, in the absence or presence of AdoMet, with CO solutions and the spectra recorded over time. CO dissociation kinetics were evaluated by mixing the Fe(II)-CO adduct of CBS p.P49L with NO• stock solutions, prepared by equilibrating degassed ultra-pure water with NO• gas at 1 atm, further kept on ice protected from light.
(§3) CO affinity titrations and CO binding and dissociation kinetic data were analyzed with the software MATLAB (Mathworks). Global fit analysis of spectral data was performed by singular value decomposition analysis combined with curve fitting.

[3] = target: T3, recombinant human CBS p.P49L (Homo sapiens, UniProt P35520, P49L); experiment: H2S synthesis assay (amperometric and lead acetate methods), CBS p.P49L; type: biochemical; settings: 37°C; for H2S-synthesizing activity stimulation by AdoMet: 500 μM AdoMet
T3 construct: Recombinant full-length human CBS p.P49L was expressed and purified; made in house; host or cells: E. coli
T3 sequence (P35520 1-551 P49L): T1 sequence (P35520 1-551) with P49L
Experimental: as §1

[4] = target: T4, human WT CBS (ferrous heme) (Homo sapiens, UniProt P35520); experiment: Stopped-flow kinetics of CO binding to ferrous WT CBS; settings: WT enzyme
T4 construct: employed in this study, corresponding to full-length CBS WT and p.P49L purified in the absence; made in house
T4 sequence (P35520 1-551): T1 sequence (P35520 1-551)

[5] = target: T1, recombinant human WT CBS; settings: isolated proteins and bacterial or human cell lysates; cited from earlier work
[6] = target: T5, human CBS p.P49L Fe(II)-CO adduct (Homo sapiens, UniProt P35520, P49L); experiment: Stopped-flow kinetics of CO dissociation (displacement by NO•) from CBS p.P49L; type: binding; settings: for CO displacement by NO• rate constant k2: 25% reaction amplitude
T5 construct: Recombinant full-length human CBS p.P49L was expressed and purified; made in house; host or cells: E. coli
T5 sequence (P35520 1-551 P49L): T1 sequence (P35520 1-551) with P49L
Experimental: as §2, §3

[7] = target: T2, human CBS p.P49L (ferrous heme); experiment: Anaerobic CO titrations of reduced CBS p.P49L (UV-visible absorption); type: binding; settings: 20°C
Experimental: UV-visible absorption spectra of oxidized and reduced CBS p.P49L and WT were recorded in an Agilent Cary-60 spectrophotometer. Anaerobic titrations of reduced CBS p.P49L with CO were performed at 20°C in an Agilent Cary-60 or a Shimadzu UVPC-1800 spectrophotometer. Gas exchange was prevented either by filling the quartz cuvette and sealing it with a rubber-cap or by adding mineral oil on top of the aqueous medium. Anaerobic conditions were ensured by nitrogen flushing and addition of glucose oxidase (4 units·ml^−1), catalase (13 μg·ml^−1), superoxide dismutase (12 units·ml^−1), and glucose (3 mM) to scavenge contaminant oxygen, hydrogen peroxide, and superoxide anion. CBS p.P49L and WT (1.4–1.6 μM in heme) were reduced with 90 μM sodium dithionite, diluted from a 45 mM stock solution (quantitated using ε314 nm = 8,043 M^−1·cm^−1 [50]). CO stock solutions were prepared by equilibrating thoroughly degassed buffer A with the pure gas at 1 atm, yielding 1 mM CO at 20°C. After each CO addition with gas-tight Hamilton syringes, the spectral changes were visually inspected in real time and a new addition was immediately made when no more changes were observed.
According to [16, 19, 20, 51], two apparent Kd (Kd1 and Kd2) were used to satisfactorily fit the CO affinity data. The Kd1 and Kd2 values were obtained by fitting the data to (1), where PL is the concentration of CO-bound CBS p.P49L, PT and LT are, respectively, the total CBS p.P49L and CO concentrations, and α1 and α2 are, respectively, the protein fractions binding CO at higher (Kd1) and lower (Kd2) affinity. (1) PL=α1PT+LT+Kd1−PT+LT+Kd1^2−4PTLT+α2PT+LT+Kd2−PT+LT+Kd2^2−4PTLT/2.
as §3

[8] = target: T6, human WT CBS Fe(II)-CO adduct (Homo sapiens, UniProt P35520); experiment: Stopped-flow kinetics of CO dissociation (displacement by NO•) from WT CBS; type: binding; settings: WT enzyme; NO• 900 µM after mixing; 75% relative amplitude; data not shown
T6 construct: employed in this study, corresponding to full-length CBS WT and p.P49L purified in the absence; made in house
T6 sequence (P35520 1-551): T1 sequence (P35520 1-551)

[9] = AdoMet-bound CBS p.P49L, 35% reaction amplitude

With C[S+](CC[C@H](N)C(=O)[O-])C[C@H]1O[C@@H](n2cnc3c(N)ncnc32)[C@H](O)[C@@H]1O (stereo partly drawn) [AdoMet, S-Adenosyl-L-methionine] the “AdoMet activation factor observed for the WT enzyme” value ([1]; WT enzyme, overall) was no more than 2 fold, the “H2S-synthesizing activity stimulation by AdoMet” value ([1]; WT purified in the absence of PLP (PLP-untreated)) was 1.5 fold and the “H2S-synthesizing activity stimulation by AdoMet” value ([1]; WT purified in the presence of 20 μM PLP (PLP-treated)) was 1.9 fold. The “fold increase in the CO association rate in the presence of AdoMet” value ([2]; p.P49L variant) was ~ 4.5 fold, the “H2S-synthesizing activity stimulation by AdoMet” value ([3]; p.P49L purified in the absence of PLP (PLP-untreated)) was 1.4 fold and the “H2S-synthesizing activity stimulation by AdoMet” value ([3]; p.P49L purified in the presence of 20 μM PLP (PLP-treated)) was 1.1 fold. For the same molecule, the “fold increase in the CO association rate in the presence of AdoMet” value [4] was ~ 2 fold and the “AdoMet activation factor of CBS enzymatic activity, as usually reported” value [5] was 2–5 fold.
For [C-]#[O+] [CO, Carbon monoxide], the “CO displacement by NO• rate constant k2” value ([6]; AdoMet-bound CBS p.P49L (500 μM before mixing), 900 μM NO•, Figure 5(b) fit) was 0.038 s⁻¹, the “CO displacement by NO• rate constant k1” value ([6]; AdoMet-bound CBS p.P49L (500 μM before mixing), 900 μM NO•, 75% reaction amplitude, Figure 5(b) fit) was 1.96 s⁻¹ and the “CO displacement by NO• rate constant k2” value ([6]; AdoMet-free CBS p.P49L, 900 μM NO•, Figure 5(b) fit) was 0.035 s⁻¹. For the same molecule, the “CO displacement by NO• rate constant k1” value ([6]; AdoMet-free CBS p.P49L, 900 μM NO•, 75% reaction amplitude, Figure 5(b) fit) was 1.93 s⁻¹, the “CO displacement by NO• rate constant k1” value ([6]; CBS p.P49L, NO• 900 µM after mixing, 75% relative amplitude, no effect of AdoMet) was 2.0 ± 0.1 s⁻¹ and the “CO binding fitted rate constant k2” value ([2]; AdoMet-bound CBS p.P49L) was 0.26 s⁻¹. For the same molecule, the “CO binding fitted rate constant k1” value [2, 9] was 2.55 s⁻¹, the “CO binding fitted rate constant k3” value [2, 9] was 0.022 s⁻¹ and the “CO binding fitted rate constant k1” value ([2]; AdoMet-free CBS p.P49L, 25% reaction amplitude) was 0.48 s⁻¹. The “CO binding fitted rate constant k2” value ([2]; AdoMet-free CBS p.P49L) was 0.05 s⁻¹, the “CO binding fitted rate constant k3” value ([2]; AdoMet-free CBS p.P49L, 45% reaction amplitude) was 0.006 s⁻¹ and the Kd ([7]; AdoMet-bound p.P49L CBS (500 μM AdoMet), 30% relative amplitude, read-out: KdCO,2) was 1.5 µM and 2.1 µM. For the same molecule, the Kd ([7]; AdoMet-bound p.P49L CBS (500 μM AdoMet), 70% relative amplitude, upper limit, read-out: KdCO,1) was no more than 0.03 µM, the Kd ([7]; AdoMet-free p.P49L CBS, higher-affinity fraction, 60% relative amplitude, read-out: KdCO,1) was 0.06 µM and 0.05 µM and the Kd ([7]; AdoMet-free p.P49L CBS, lower-affinity fraction, 40% relative amplitude, read-out: KdCO,2) was 21 µM and 22 µM. For the same molecule, the “CO displacement by NO• rate constant k1” value [8] was 2.0 ± 0.1 s⁻¹.
With Cc1ncc(COP(=O)(O)O)c(C=O)c1O [PLP, Pyridoxal 5′-phosphate] the “basal H2S-synthesizing activity of p.P49L after PLP supplementation along the purification” value ([3]; p.P49L purified in the presence of 20 μM PLP (PLP-treated), compared with WT) was “basal activity similar to the WT enzyme”.
